Assay results as given in article PMC8333425, “Discovery of a dual Ras and ARF6 inhibitor from a GPCR endocytosis screen” (Nature Communications, 2021).
Values after ≈ are worked out from the molar mass of the structure shown. Values joined by “and” are separate entries in the source; they are usually repeats but may differ in a detail not shown here. Equal values may be shown once.

Key:
[1] = Maximal solubility concentration; format: physicochemical
[2] = system: ERK1/2 activation by AT1R; test: Western blot of AT1R-mediated ERK1/2 phosphorylation; format: cell-based, human; conditions: for p-ERK1/2 over ERK1/2, normalized to basal (0 min), AT1R: Comp 21 50 μM; for p-ERK1/2 over ERK1/2, normalized to basal (0 min), AT1R / ERK 1/2 activation, AT1R (p-ERK1/2 over ERK1/2, fold over basal): individual experiments
Experimental: HEK293SL cells (10^5 cells per well) were seeded in a poly-L-lysine-coated six-well plate and transiently transfected with 3 μg Flag-AT1R, HA-B2R or HA-β2AR and/or 500 ng Flag-MEK1-WT, Flag-MEK1-DD, Flag-BRAF-WT, Flag-BRAF-V600E, Flag-K-Ras-WT, Flag-K-Ras-G12V, HA-ARF6-WT, or HA-ARF6-T27N. Gαq/11 KO and βarr1/2 KO cells were seeded onto 100 mm dishes at a density of 10^6 cells per dish. Next day, cells were transfected with 3 μg AT1R alone or along with 500 ng of β-arrestin2 using PEI. After 18 h of transfection, cells were detached and re-seeded onto poly-L-lysine coated 12-well plates (~1.5–2 × 10^5cells/well) for subsequent experiments. Forty-eight hours post transfection, in a 37 °C water bath, cells were serum-starved for 30 min, pretreated with DMSO (0.1%) or compound 21/Rasarfin (50 µM or at indicated concentrations) for 30 min, then stimulated or not with the indicated ligand [AngII (1 µM), BK (1 µM), Iso (10 µM) or EGF (100 ng/ml)] at indicated times. Cells were put on ice, washed with PBS and solubilized in 2x laemmli buffer (250 mM Tris–HCl pH 6.8, 2% SDS (w/v), 10% glycerol (v/v), 0.01% bromophenol blue (w/v) and 5% β-mercaptoethanol (v/v)) by heating at 65 °C for 15 min. Lysates were resolved on 10 or 14% SDS-PAGE, transferred to nitrocellulose membranes and immunoblotted for p-ERK1/2, ERK1/2, p-Akt, Akt, HA, Myc, β-actin or FLAG. ImageLab 5.2 software was used to quantify the digital blots as fold of the phosphorylated protein over total protein, which were then normalized as indicated in the figure legends. Uncropped immunoblots are provided in the Source Data file.

[3] = system: AT1R; test: Endosomal BRET assay of AngII-mediated AT1R internalization (AT1R-RlucII / Endo-rGFP; HTS, validation, concentration-response); format: cell-based, human
Excerpt: We performed a HT campaign in HEK293 cells using the bystander endosomal BRET sensor, which consists of a Renilla luciferase (RlucII)-tagged AT1R and an acceptor renilla GFP (rGFP) anchored to endosomes through an Endofin-FYVE (Endo-rGFP) domain[12]. AngII-mediated trafficking of AT1R to endosomes was screened against commercial libraries of ~115,000 small molecules (Fig. 1a and Supplementary Data 1). Because our assay is based on luminescence and fluorescence, we excluded 6610 compounds that quenched more than 50% of the luciferase or GFP signals. After excluding 5 AT1R antagonists, we conserved hit compounds blocking by more than 40%, as well as those potentiating by more than 100% receptor internalization. From this collection of 943 compounds, a second validation on AT1R internalization was performed using the same BRET assay, as well as on the agonist-mediated B2R internalization, this time using B2R-RlucII and Endo-rGFP. Only compounds that were revalidated on AT1R and affected B2R endocytosis were kept, which included forty hits (20 potentiators and 20 inhibitors) (Fig. 1b and Supplementary Data 2). We focused on inhibitors that were commercially available at the beginning of the project and tested their cell toxicity by microscopy, looking at cells expressing B2R tagged with YFP, which highlights cell contours and potential morphological changes, such as rounding up of cells following treatment with 50 μM of the compounds that may have indicated cell death. None of the inhibitors tested caused abnormal cell morphological changes when cells were treated with compounds as compared to DMSO-treated cells. Inhibitors were also assessed in terms of structure novelty, derivatization potential, and commercial availability of analogs (within 95–98% similarity from Tanimoto metric, Sci-Finder, https://scifinder-n.cas.org), for structure-activity relationship studies (SAR). They were scored 1–5, from best to worst. We excluded compounds with potential nucleophilic reactivity (e.g., Michael addition: compounds 7, 26, and 27), those reported to have biological activities (compounds 8, 20, 25, 30, and 35) and/or showing autofluorescence (compound 26). Compound 19 ranked high, but only had one other molecule with a similar structure available. Although other molecules could be interesting in their own rights as endocytosis inhibitors (e.g., compounds 1, 9, 11, 12, 13, 24, 31, and 37), we focused on compound 21 (Fig. 1c) because not only did it rank high in our analysis, but it was also the only compound with substantially more similar analogs commercially available at the time of these investigations. In the screen and the follow-up validation assay, 21 inhibited more than 50% AT1R internalization and more than 65% B2R internalization (Supplementary Data 2). […] Because β-arrestins are critically involved in GPCR endocytosis and trafficking in cells, we assessed 21’s effects on β-arrestins’ recruitment to AT1R and B2R at the PM using a BRET assay, as well as their trafficking into endosomes by microscopy.
The chemical library used for initial screening was from Chembridge DiverSet™ (60,000 compounds), Maybridge HitFinder™ (16,000 compounds), Maybridge (selected, 16,000 compounds), SPECS (selected, 16000 compounds), Microsource Discovery Spectrum (2000 compounds), Biomol (natural products, 500 compounds), Prestwick (commercialized products, 1120 compounds), SIGMA LopacTM (1280 compounds) and internal collection (synthesized at Université de Montréal-IRIC, ~4000 compounds). Compounds were all assigned an Université de Montréal number (UM) for internal use. Screen was performed at IRIC HTS facility. KINOMEscan™ profiling was serviced by Eurofin/DiscoverX (San Diego, USA).
HEK293SL cells were seeded at a density of 7.5 × 10^5 cells per 100-mm dish and 24 h later, transiently transfected as such. […]

**Q.** What does the source list for `CC(C)C(=O)N1CCN(c2ccc(NC(=O)c3cc4ccccc4o3)cc2Cl)CC1` [Compound 21]?
**A.** solubility ([1]; DMSO, organic solvent or mixture, read-out: maximum solubility concentration in DMSO): ~50 µM (≈ 21.3 µg/mL); AngII-mediated phosphorylation of ERK1/2 ([2]; 50 μM): totally inhibited; p-ERK1/2 over ERK1/2, normalized to basal (0 min), AT1R ([2]; time 0 min): 1; p-ERK1/2 over ERK1/2, normalized to basal (0 min), AT1R ([2]; time 2 min): 0.1554 and 0.4142 and 0.5216 and 8.819; p-ERK1/2 over ERK1/2, normalized to basal (0 min), AT1R ([2]; time 5 min): 0.1741 and 0.568 and 0.6273 and 10.8319; Mean Diff. DMSO vs. compound of P-ERK/ERK (fold over Basal) (Dunnett's multiple comparisons test) ([2]; Fig.8b): 6.88; IC50 ([2]; Homo sapiens, read-out: IC50 for inhibition of ERK1/2 activation by AT1R): 5 µM; ERK 1/2 activation, AT1R (p-ERK1/2 over ERK1/2, fold over basal) ([2]; Log [Comp 21] (M) -4.3): 17.8621 percent compared to DMSO and 9.459 percent compared to DMSO and 11.994 percent compared to DMSO; ERK 1/2 activation, AT1R (p-ERK1/2 over ERK1/2, fold over basal) ([2]; Log [Comp 21] (M) -5): 18.3493 percent compared to DMSO and 17.9264 percent compared to DMSO and 17.6879 percent compared to DMSO; ERK 1/2 activation, AT1R (p-ERK1/2 over ERK1/2, fold over basal) ([2]; Log [Comp 21] (M) -5.3): 58.8009 percent compared to DMSO and 49.3558 percent compared to DMSO and 49.3771 percent compared to DMSO; ERK 1/2 activation, AT1R (p-ERK1/2 over ERK1/2, fold over basal) ([2]; Log [Comp 21] (M) -6): 81.7633 percent compared to DMSO and 93.0329 percent compared to DMSO and 113.57 percent compared to DMSO; ERK 1/2 activation, AT1R (p-ERK1/2 over ERK1/2, fold over basal) ([2]; Log [Comp 21] (M) -6.3): 97.88 percent compared to DMSO and 83.5696 percent compared to DMSO; ERK 1/2 activation, AT1R (p-ERK1/2 over ERK1/2, fold over basal) ([2]; Log [Comp 21] (M) -7): 100 percent compared to DMSO; block of AT1R internalization ([3]; 21 at 50 µM): around 90%; Mean Diff. DMSO vs. compound (Fig.8a, Dunnett's multiple comparisons test) ([3]; DMSO = 100): 49.06; IC50 ([3]; Homo sapiens, AngII, into endosomes, read-out: IC50 for inhibition of AT1R internalization): 10 µM; AT1R internalization into endosomes, ligand-promoted BRET (Mean) ([3]; Log [Comp21] (M) -4.3): 13.6921 percent compared to DMSO; AT1R internalization into endosomes, ligand-promoted BRET (Mean) ([3]; Log [Comp21] (M) -4.6): 24.3306 percent compared to DMSO; AT1R internalization into endosomes, ligand-promoted BRET (Mean) ([3]; Log [Comp21] (M) -5): 74.1156 percent compared to DMSO; AT1R internalization into endosomes, ligand-promoted BRET (Mean) ([3]; Log [Comp21] (M) -5.3): 91.7102 percent compared to DMSO; AT1R internalization into endosomes, ligand-promoted BRET (Mean) ([3]; Log [Comp 21] (M) -6): 95.8484 percent compared to DMSO; AT1R internalization into endosomes, ligand-promoted BRET (Mean) ([3]; Log [Comp21] (M) -6.3): 92.6647 percent compared to DMSO; AT1R internalization into endosomes, ligand-promoted BRET (Mean) ([3]; Log [Comp 21] (M) -7): 100.935 percent compared to DMSO; AT1R Confirmation Inhibition (%DMSO) ([3]; confirmation, two experiments, negative = potentiation): 60.3475 %DMSO; AT1R Primary Screen Inhibition (%DMSO) ([3]; primary screen, negative = potentiation): 53.93 %DMSO; inhibition of AT1R internalization ([3]; screen and follow-up validation assay): more than 50%

**Q.** Which maximal solubility concentration [1] does the source give for `Nn1cnc2scc(-c3ccc(Cc4ccccc4)cc3)c2c1=O` [Barbadin, reference compound] here?
**A.** 100 µM

**Q.** What about the “MAPK promoted by AT1R” value ([2]; Barbadin 100 µM) of the same compound?
**A.** ineffective at blocking MAPK

**Q.** What does the source list for `CCCC(=O)N1CCN(c2ccc(NC(=O)c3cc4ccccc4o3)cc2Cl)CC1` [Compound 21.8]?
**A.** inhibition of AT1R-mediated ERK1/2 (MAPK) activation (Fig. 8b) ([2]; 50 μM): maintained its MAPK inhibitory property; inhibition of AT1R internalization into endosomes (Fig. 8a) ([3]; 50 μM): loss of compounds’ efficacy to inhibit AT1R internalization
